# Source: patent USRE38200E1, “Indole-2,3-dione-3-oxime derivatives” (NeuroSearch A/S, priority 1996, dated 2003)
# Structures can show the parent of a compound that is named as a salt.
# How the values were obtained:
# AMPA receptor = assay: 3H-AMPA binding (in vitro receptor affinity test); design: species or system rat; conditions: cerebral cortex membranes from male Wistar rats; 3H-AMPA 5 nM; 30 minutes at 2° C.; read-out: IC50 (concentration of the test substance which inhibits the specific binding of 3H-AMPA by 50%)
# Source text: In an in vitro activity (receptor affinity) test, the chemical compounds of the present invention have been tested for their affinity for the AMPA receptor.
# L-glutamate (GLU) is the major excitatory neurotransmitter in the mammalian central nervous system. From electro-physiological- and binding studies, there appear to be at least three subtypes of GLU receptors, tentatively named N-methyl-D-aspartate (NMDA) receptors, quisqualate receptors and kainate receptors. AMPA has been known for several years to be a potent and selective agonist at the traditionally named quisqualate receptors. Activation of quisqualate receptors by AMPA is associated with Na^+influx and K^+efflux leading to depolarisation. ^3H-AMPA is a selective radioligand for labelling the ionotropic quisqualate (AMPA) receptors.
# Preparations are performed at 0-4° C. unless otherwise indicated. Cerebral cortex from male Wistar rats (150-200 g) is homogenised for 5-10 sec in 20 ml Tris-HCl (30 mM, pH 7.4) using an Ultra-Turrax™ homogeniser. The suspension is centrifuged at 27,000×g for 15 minutes and the pellet is washed three times with buffer (centrifuged at 27,000×g for 10 minutes). The washed pellet is homogenised in 20 ml of buffer and incubated on a water bath (of 37° C.) for 30 minutes to remove endogenous glutamate and then centrifuged for 10 minutes at 27,000×g. The pellet is then homogenised in buffer and centrifuged at for 10 minutes at 27,000×g. The final pellet is resuspended in 30 ml buffer and the preparation is frozen and stored at −20° C.
# The membrane preparation is thawed and centrifuged at 2° C. for 10 minutes at 27,000×g. […] Non-specific binding is determined using L-glutamate (0.6 mM, final concentration).
# After incubation the 550 μl samples are added 5 ml of ice-cold buffer and poured directly onto Whatman™ GF/C glass fibre filters under suction and immediately washed with 5 ml of ice-cold buffer. […] The amount of radioactivity on the filters is determined by conventional liquid scintillation counting. […]
SMILES,melting point,IC50 (AMPA receptor)
"CN1CCc2c(-c3ccc(S(=O)(=O)N(C)C)cc3)cc3c(c2C1)NC(=O)C3=NOC1CCOC1=O (centres unmarked) (as salt: hydrochloride) [8-methyl-5-(4-(N,N-dimethylsulfamoyl)phenyl)-6-7-8-9-tetrahydro-1H-pyrrolo[3,2-h]-isoquinoline-2,3-dione-3-O-(3-(2-oxo)tetrahydrofuryl) oxime, hydrochloride]",245 °C (dec.),
"CCOC(=O)CO/N=C1\C(=O)Nc2c1cc(-c1ccc(S(=O)(=O)N(C)C)cc1)c1c2CN(C)CC1 [8-methyl-5-(4-(N,N-dimethylsulfamoyl)phenyl-6,7,8,9-tetrahydro-1H-pyrrolo [3,2-h]isoquinoline-2,3-dione-3-O-(ethoxycarbonylmethyl) oxime]",,100 nM
"CN1CCc2c(-c3ccc(S(=O)(=O)N(C)C)cc3)cc3c(c2C1)NC(=O)C3=NOC(CCO)C(=O)O (centres unmarked) (as salt: sodium) [8-methyl-5-(4-(N,N-dimethylsulfamoyl)phenyl)-6-7-8-9-tetrahydro-1H-pyrrolo[3,2-h]-isoquinoline-2,3-dione-3-O-(4-hydroxybutyric acid-2-yl)oxime sodium salt]",> 200 °C (dec.),
"CN1CCc2c(-c3ccc(S(=O)(=O)N(C)C)cc3)cc3c(c2C1)NC(=O)C3=NOC(CCO)C(=O)O (centres unmarked) [8-methyl-5-(4-(N,N-dimethylsulfamoyl)phenyl)-6-7-8-9-tetrahydro-1H-pyrrolo[3,2-h]-isoquinoline-2,3-dione-3-O-(4-hydroxybutyric acid-2-yl)oxime sodium salt]",,50 nM
"CN1CCc2c(-c3ccc(S(=O)(=O)N(C)C)cc3)cc3c(c2C1)NC(=O)C3=NOC1CCOC1=O (centres unmarked) [8-methyl-5-(4-(N,N-dimethylsulfamoyl)phenyl)-6-7-8-9-tetrahydro-1H-pyrrolo[3,2-h]-isoquinoline-2,3-dione-3-O-(3-(2-oxo)tetrahydrofuryl) oxime, hydrochloride]",,150 nM
